In patent US9574182B2, “Monoterpene glycosyltransferase originating from hop and method for using same” (SUNTORY HOLDINGS LIMITED, priority 2012, dated 2017):

How the values were obtained:
Assay type in all cases: biochemical, Humulus lupulus
[1] = test system: HlUGT119; assay: Monoterpene glycosylation by recombinant HlUGT119 (UDP-glucose, LC-MS); settings: 2 mM UDP-glucose, 0.2 mM sugar acceptor substrate, pH 7.5, 30° C., 1 hour
Experimental: (§1) Next, these proteins were used to test their reactivity with monoterpenes by LC-MS analysis. Standard enzyme reaction conditions are as follows. A reaction solution (2 mM UDP-glucose, 0.2 mM sugar acceptor substrate, 100 mM potassium phosphate buffer (pH 7.5), 25 μl purified […] enzyme solution) was prepared in a volume of 50 μl with distilled water and reacted at 30° C. for 1 hour. The enzyme reaction solution (5 μl) was analyzed by LC-MS under the following conditions. LC Conditions Column: CAPCELL PAK C18-UG120 (2.0 mm I.D.×150 mm) Mobile phase: A: water (containing 0.05% formic acid), B: acetonitrile Gradient: linear concentration gradient of B from 15% to 90% over 15 minutes Flow rate: 0.2 ml per minute Column oven: 40° C. MS Conditions ESI (negative mode) SIM mode: (m/z 315, 338, 361, 363, 331, 354, 377, 429, etc.) The above LC-MS analysis was conducted for each of HlUGT119, HlUGT127, HlUGT279 and HlUGT251.

[2] = test system: HlUGT127; assay: Monoterpene glycosylation by recombinant HlUGT127 (UDP-glucose, LC-MS); settings: 2 mM UDP-glucose, 0.2 mM sugar acceptor substrate, pH 7.5, 30° C., 1 hour
Experimental: as §1

[3] = test system: HlUGT279; assay: Monoterpene glycosylation by recombinant HlUGT279 (UDP-glucose, LC-MS); settings: 2 mM UDP-glucose, 0.2 mM sugar acceptor substrate, pH 7.5, 30° C., 1 hour
Experimental: as §1

[4] = test system: HlUGT251; assay: Monoterpene glycosylation by recombinant HlUGT251 (UDP-glucose, LC-MS); settings: for monoglycosylation activity of HlUGT251 on the monoterpene: 2 mM UDP-glucose, 0.2 mM sugar acceptor substrate, pH 7.5, 30° C., 1 hour, LC-MS
Experimental: as §1

Molecule	monoglycosylation activity of HlUGT119 on the monoterpene [1]	monoglycosylation activity of HlUGT127 on the monoterpene [2]	monoglycosylation activity of HlUGT279 on the monoterpene [3]	monoglycosylation activity of HlUGT251 on the monoterpene [4]	amount of product compared with the other three enzymes ([4]; same reaction conditions, ascribed to extremely lower amount of expressed protein)
CC(C)=CCC/C(C)=C/CO [geraniol, Geraniol]	monoglycosylation activity	monoglycosylation activity	monoglycosylation activity	monoglycosylation activity	–
C=CC(C)(O)CCC=C(C)C (stereo not drawn) [linalool, Linalool]	monoglycosylation activity	monoglycosylation activity	monoglycosylation activity	monoglycosylation activity	–
HlUGT251: Humulus lupulus monoterpene glycosyltransferase, amino acid sequence SEQ ID NO: 8, expressed as HisTag fusion in E. coli (protein, listed as Humulus lupulus, His tag) MGSISEMMKPHAVCVPFPAQGHVNPMMQLAKLLHSRGFHITYVNTEFNHRRLIRSRGPDSVKGLPDFQFETIPDGLPPSDRDATQEVPPLCDATRKNCLGPFKELLHKLRSCSEVPPVTCIITDGIMTFGIKAAREFGIPEVVFWTASACSFMGYLQYDELVRRGIVPFKDESFMLDGTLDTPIDWIPGIRDVRLRDLPSFLRVTSTDDIMFDFLGSQAKNCLTSSAIIFNTFRELELEVLDSISDMYPNIYTIGPLPMLNRHLPAESQVKSMSTSLWKEDSTCFQWLHKREPNSVVYVNYGSITTMTEDNFREFAWGLANSKHSFVWIVRPDVIMGSNSATVLPEEFFEEIKDRGLLANWCQQKEVLEHSSVGVFLTHCGWNSTVETVCAGVPVICWPFFADQQTNCHFACKTLGIGVEISPDVKREEVTGLVKEMMEGEKGEKMREKASYWKKKAAETTDIGGDSYHDFDKLIKSLGFDGRD	–	–	–	–	smaller amount of product
